Like-named read-outs stand apart in the source and are kept apart here.
Assays:
CYP2C9 [1] = molecular target: T1, CYP2C9 (Homo sapiens, UniProt P11712); assay: in vitro; conditions: both, microsomes, pH 7.4
Procedure: (§1) Briefly, 96-well incubation plates were prepared by adding inhibitors, substrates, and extracts (all dissolved in ethanol) to the respective wells. The 96-well plates were then placed on a thermoshaker (37°C, 500 rpm) until full evaporation of the solvent. […] HLM were thawed on ice, diluted in 100 mM phosphate buffer (pH 7.4) (final concentration 0.2 mg/mL), and added to the incubation plate that was prepared with the inhibitors and substrates. For preincubation, the plates were shaken at 500 rpm on an orbital shaker for 15 min at 37°C. […] The formation of hydroxylated metabolites was followed using UHPLC-MS/MS quantification with electrospray ionization in positive mode, as described in online supplementary material 2.
(§2) GraphPad Prism, version 9.0.1, was used for fitting of IC50 curves (inhibitor vs. normalized response, variable slope).

[2] = at 0.5 mg/mL protein concentration; cited from earlier work
CYP2C9 [3] = molecular target: T1, CYP2C9; assay: in vitro; conditions: both, microsomes, pH 7.4; remark: listed apart in the source
Procedure: as §1, §2

CYP3A4 [4] = molecular target: T2, CYP3A4 (Homo sapiens, UniProt P08684); assay: CYP inhibition assay in pooled HLM, specific substrate testosterone
Procedure: as §1, §2

CYP2C9 [5] = molecular target: T1, CYP2C9; assay: CYP inhibition assay in pooled HLM, specific substrate tolbutamide
Procedure: as §1, §2

CYP3A4 [6] = molecular target: T2, CYP3A4; conditions: read-out: Literature IC50 in pooled HLM; substrate testosterone; ref PMID 32587099; cited from earlier work
CYP2C9 [7] = molecular target: T1, CYP2C9; conditions: read-out: Literature Ki in pooled HLM; substrate warfarin; ref PMID 21356216; cited from earlier work

T1 sequence (P11712 whole entry): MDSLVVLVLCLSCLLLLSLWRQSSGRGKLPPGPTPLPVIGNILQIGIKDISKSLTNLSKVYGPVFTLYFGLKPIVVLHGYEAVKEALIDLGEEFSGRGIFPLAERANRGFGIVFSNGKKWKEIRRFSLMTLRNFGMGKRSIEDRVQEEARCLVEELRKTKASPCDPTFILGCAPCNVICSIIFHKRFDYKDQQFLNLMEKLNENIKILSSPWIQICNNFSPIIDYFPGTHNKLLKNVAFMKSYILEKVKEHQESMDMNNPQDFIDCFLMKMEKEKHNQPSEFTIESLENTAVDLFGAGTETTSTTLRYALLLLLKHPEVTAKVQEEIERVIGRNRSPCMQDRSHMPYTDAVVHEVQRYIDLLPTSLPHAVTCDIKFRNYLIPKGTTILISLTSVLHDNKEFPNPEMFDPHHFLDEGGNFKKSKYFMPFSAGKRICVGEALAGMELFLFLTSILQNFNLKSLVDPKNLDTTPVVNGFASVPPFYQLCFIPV
T2 sequence (P08684 2-503 limits assumed): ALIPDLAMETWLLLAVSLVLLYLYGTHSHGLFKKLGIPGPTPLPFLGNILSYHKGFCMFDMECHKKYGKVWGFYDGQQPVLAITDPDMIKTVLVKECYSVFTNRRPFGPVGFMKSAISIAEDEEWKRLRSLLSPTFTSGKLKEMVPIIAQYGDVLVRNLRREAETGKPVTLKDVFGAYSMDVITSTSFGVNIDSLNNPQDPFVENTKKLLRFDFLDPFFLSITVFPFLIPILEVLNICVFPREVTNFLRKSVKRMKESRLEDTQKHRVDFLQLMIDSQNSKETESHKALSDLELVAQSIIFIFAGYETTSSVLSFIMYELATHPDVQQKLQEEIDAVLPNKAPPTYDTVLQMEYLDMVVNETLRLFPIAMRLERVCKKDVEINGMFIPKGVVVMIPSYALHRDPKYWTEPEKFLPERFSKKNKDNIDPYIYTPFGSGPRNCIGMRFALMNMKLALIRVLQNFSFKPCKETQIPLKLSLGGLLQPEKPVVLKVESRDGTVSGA

Row | SMILES | IC50 at 15 min (CYP2C9 [1]) [µM] | fraction unbound [2] | IC50 at 15 min (CYP2C9 [3]) [µM] | IC50 (CYP3A4 [4]) [µM] | IC50 (CYP2C9 [5]) [µM] | IC50 (CYP3A4 [6]) [µM] | Ki (CYP2C9 [7]) [µM]
1 | C=C(C)[C@@H]1CCC(C)=C[C@H]1c1c(O)cc(CCCCC)cc1O [CBD (pure), cannabidiol] | 47 | 0.12 | > 100 | – | – | – | –
2 | CCCCCc1cc(O)c2c(c1)OC(C)(C)[C@@H]1CCC(C)=C[C@@H]21 [THC (pure), Δ9-tetrahydrocannabinol] | 6.9 | 0.05 | 73.3 | 23.6 | 0.081 | 26.1 ± 6.78 | 1.5

From article PMC9940649, “Phytochemical Comparison of Medicinal Cannabis Extracts and Study of Their CYP-Mediated Interactions with Coumarinic Oral Anticoagulants” (Medical Cannabis and Cannabinoids, 2023)
